Tested on: THP1 cells
Assay type: cell-based, human

## Cc1cc(-c2nc(C(=O)Nc3cc4oc(N5CCOCC5)nc4nc3N3CC[C@@H](O)C3)co2)ccn1 [CA-4948, emavusertib]
  Log(FC) of gene KCNH2: −0.6125
CA-4948 vs DMSO in THP1 cells
  Log(FC) of gene ABCC2: 0.6855
  Log(FC) of gene AC016629.8: 0.586
  Log(FC) of gene AC093391.2: 0.7835
  Log(FC) of gene ADAM8: 0.6886
  Log(FC) of gene ADAM19: 0.5984
  Log(FC) of gene ADCY4: 1.023
  Log(FC) of gene AMH: 0.7789
  Log(FC) of gene ANKFN1: 0.6129
  Log(FC) of gene ANKRD34A: 0.9288
  Log(FC) of gene AP3B2: 0.7192
  Log(FC) of gene AP000330.8: 0.7147
  Log(FC) of gene APOE: 0.6335
  Log(FC) of gene APOLD1: 0.7365
  Log(FC) of gene ARID3C: 0.8751
  Log(FC) of gene ARL17B: 0.6318
  Log(FC) of gene ARTN: 0.6881
  Log(FC) of gene ASIC3: 1.28
  Log(FC) of gene ATP2B3: 0.7931
  Log(FC) of gene AURKB: 0.6324
  Log(FC) of gene BRICD5: 0.6636
  Log(FC) of gene BTBD19: 0.6939
  Log(FC) of gene BVES-AS1: 0.5945
  Log(FC) of gene BZRAP1: 1.334
  Log(FC) of gene C1orf51: 1.033
  Log(FC) of gene C2orf48: 0.606
  Log(FC) of gene C5orf56: 0.7488
  Log(FC) of gene C9orf37: 0.6108
  Log(FC) of gene C15orf62: 0.8673
  Log(FC) of gene C16orf86: 0.6351
  Log(FC) of gene CACTIN-AS1: 0.7321
  Log(FC) of gene CATSPER3: 0.6152
  Log(FC) of gene CCDC103: −0.6115
  Log(FC) of gene CCDC109B: 0.8991
  Log(FC) of gene CCDC154: 0.7952
  Log(FC) of gene CCDC155: 0.6645
  Log(FC) of gene CCDC183: 0.9658
  Log(FC) of gene CD101: 0.5897
  Log(FC) of gene CD163: −0.5952
  Log(FC) of gene CD302: 0.6021
  Log(FC) of gene CDC42EP2: 0.6518
  Log(FC) of gene CEACAM19: 1.259
  Log(FC) of gene CGN: 0.9021
  Log(FC) of gene CHN2: 0.8531
  Log(FC) of gene CHRFAM7A: −0.9429
  Log(FC) of gene CILP2: 0.8989
  Log(FC) of gene CLDN15: 0.6387
  Log(FC) of gene CLEC10A: 0.6157
  Log(FC) of gene CLEC12B: 0.7555
  Log(FC) of gene CLK1: 1.08
  Log(FC) of gene CLK3: 0.9323
  Log(FC) of gene CLK4: 0.8127
  Log(FC) of gene CMTM1: 1.158
  Log(FC) of gene CNIH2: 0.9526
  Log(FC) of gene CNKSR1: 0.9226
  Log(FC) of gene COL7A1: 1.605
  Log(FC) of gene CPNE5: 0.7008
  Log(FC) of gene CPT1B: 1.318
  Log(FC) of gene CRABP2: 3.095
  Log(FC) of gene CTRL: 1.027
  Log(FC) of gene DCAF4L1: 1.097
  Log(FC) of gene DCAKD: 0.6901
  Log(FC) of gene DCST2: 1.278
  Log(FC) of gene DDB2: 0.5883
  Log(FC) of gene DEGS2: 0.6503
  Log(FC) of gene DMPK: 0.6345
  Log(FC) of gene DNAH1: 0.6015
  Log(FC) of gene DNAJC27-AS1: 0.6304
  Log(FC) of gene DNASE1L2: 1.008
  Log(FC) of gene DND1: 1.389
  Log(FC) of gene DNHD1: 1.083
  Log(FC) of gene DRP2: 0.9019
  Log(FC) of gene EFCAB12: 1.697
  Log(FC) of gene EGFR: 0.882
  Log(FC) of gene EIF3CL: 0.7466
  Log(FC) of gene ELMO3: 0.7963
  Log(FC) of gene ENHO: 0.7452

From US20260034112A1, “MULTI-CYCLIC IRAK1 AND IRAK4 INHIBITING COMPOUNDS AND USES THEREOF” (CHILDREN'S HOSPITAL MEDICAL CENTER, priority 2022, published 2026)
